This passage reports IC50 and LD50 results from patent publication US10561681B2, “Antimetastatic 2H-selenopheno[3,2-h]chromenes, synthesis thereof, and methods of using same agents” (Latvian Institute of Organic Synthesis, priority 2016, dated 2020).

Each structure is given as a SMILES string. Several values for one entry are separate records, joined by “and”; a condition that tells them apart may be missing. Equal values may be shown once. Read-outs that look alike come from different tables or passages of the source.

What all share (format): cell-based
One series deals with MG-22A (mouse hepatoma). The experiment in a line: In vitro cytotoxicity, MTT test. The following applies: MTT, 72 h, read-out: Cytotoxicity IC50, MG-22A. The method, then: (§1) Anticancer activity of selenopheno[h]chromenes was tested in vitro using cytotoxicity assay. […] About 2-9·10^4 cells/mL (depending on line nature) were placed in 96-well plates immediately after compounds were added to the wells. Untreated cells were used as a control. The plates were incubated for 72 h, 37° C., 5% CO2. The number of surviving cells was determined using 3-(4,5-dimethylthiazol-2-yl)-2,5-diphenyltetrazolinium bromide (MTT). MTT-test: after incubating culture medium was removed and 200 μL fresh medium with 10 mM HEPES was added in each well of the plate, than 20 μL MTT (2 mg/mL in HBSS) was added. After incubation (3 hr, 37° C., 5% CO2), the medium with MTT was removed and 200 μL DMSO were added at once to each sample. The samples were tested at 540 nm on Anthos HT II photometer.

Series [1] has as its system MCF-7 (human breast adenocarcinoma, estrogen-positive). Put plainly: In vitro cytotoxicity, MTT test. The following applies: MCF7, MTT, 72 h, read-out: Cytotoxicity IC50, MCF-7. The method, then:
as §1
For orientation: Formazan colour is commonly taken as a measure of viable cells.

Series [2] has as its system MDA-MB-435s (human melanoma). The experiment in a line: In vitro cytotoxicity, MTT test. The following applies: MTT, 72 h, read-out: Cytotoxicity IC50, MDA-MB-435s. The method, then: as §1
In series [3] the test system is HT-1080 (human fibrosarcoma). The experiment in a line: In vitro cytotoxicity, MTT test. The conditions noted are these: HT-1080, MTT, 72 h, read-out: Cytotoxicity IC50, HT-1080. The method, then: as §1
Series [4] has as its system HepG2 (human hepatocellular carcinoma). The experiment in a line: In vitro cytotoxicity, MTT test. The following applies: HepG2, MTT, 72 h, read-out: Cytotoxicity IC50, HepG2. The method, then:
as §1

The subject of series [5] is SH-SY5Y (human neuroblastoma). Put plainly: In vitro cytotoxicity, MTT test. The conditions noted are these: 72 h, MTT, read-out: Cytotoxicity IC50, SHSY5Y. The method, then: as §1
Series [6] has as its system MES-SA (human uterus sarcoma). The experiment in a line: In vitro cytotoxicity, MTT test. The following applies: MTT, 72 h, read-out: Cytotoxicity IC50, MES-SA. The method, then:
as §1

The next series has as its system CCL-8 (mouse sarcoma). The experiment in a line: In vitro cytotoxicity, MTT test. The following applies: 72 h, read-out: Cytotoxicity IC50, CCL-8. The method, then:
as §1

The subject of series [7] is A549 (human lung carcinoma). The experiment in a line: In vitro cytotoxicity, MTT test. The following applies: MTT, 72 h, read-out: Cytotoxicity IC50, A549. The method, then: as §1
A short description of series [8]: Basal cytotoxicity test, Neutral Red Uptake (NRU) assay. The conditions noted are these: for LD50 at 24 h: mouse, po, acute oral LD50 calculated from 3T3 NRU IC50 by regression formula, read-out: Basal cytotoxicity Estimated* LD50; for IC50 at 24 h: normal mouse embryo fibroblasts, read-out: Cytotoxicity IC50, 3T3. The method, then: In parallel, the borderline concentration relevant to the highest tolerated dose has been determined for each compound using the NIH 3T3 (mouse embryo fibroblasts) cell line and the basal cytotoxicity obtained has then been used to predict the starting doses for in vivo acute oral LD50 values in rodents.
the Neutral Red Uptake (NRU) assay was performed according to the standard protocol of Stokes modified by the NICEATM-ECVAM validation study. The NRU cytotoxicity assay procedure is based on the ability of viable cells to incorporate and bind Neutral Red, a supravitally dye. Balb/c 3T3 (Mouse Swiss Albino embryo fibroblast) cells (9000 cells/well) were placed into 96-well plates for 24 h in Dulbecco's modified Eagle's (DMEM) medium containing 5% fetal bovine serum. The cells were then exposed to the test compounds over a range of […] concentrations (1000, 316, 100, 31, 10, 3, 1 μg/ml) for 24 h. Untreated cells were used as a control. After 24 h, the medium was removed from all plates. Then, 250 μL of Neutral Red solution were added (0.05 mg/mL NR in DMEM 24 h pre-incubated at 37° C. and then filtered before use through 0.22-μm syringe filter). Plates were incubated for 3 h and then cells were washed three times with PBS. The dye within viable cells was released by extraction with a mixture of acetic acid, ethanol and water (1:50:49). Absorbance of Neutral Red was measured using a spectrophotometer multiplate reader (TECAN, Infinite M1000) at 540 nm. The percentage of living cells was calculated using the formula: OD (treated cells)*100/OD (control cells). The IC50 values were calculated using the programme Graph Pad Prism® 3.0.
Data from the in vitro tests were used for estimating the starting dose for acute oral systemic toxicity tests in rodents. […] The value is recalculated to mg/kg and compounds are evaluated in accordance with four toxicity categories: category 1: LD50≤5 mg/kg (highly toxic); category 2: 5<LD50≤50 mg/kg (moderately toxic); category 3: 50<LD50≤300 mg/kg (slightly toxic); category 4: 300<LD50≤2 000 mg/kg (practically non-toxic).

What is called IC50 is the concentration that inhibits the measured activity by half. For orientation: LD50 means the dose at which mortality reaches 50%. As to `COC(=O)c1cc2ccc3c(Br)c(C(C)(C)O)[se]c3c2oc1=O` [Compound I-1, Methyl 7-bromo-8-(2-hydroxypropan-2-yl)-2-oxo-2H-selenopheno[3,2-h]chromene-3-carboxylate], the IC50 is > 122 µM with MG-22A (mouse hepatoma); 221 ± 13 µM in series [1]; 95 ± 8 µM in series [2]; 225 ± 11 µM in series [3]; > 117 µM in series [4]; 32 µM in series [5] (Homo sapiens, SH-SY5Y). In addition, the IC50 in [6] is 95 ± 9 µM; in the series with CCL-8 (mouse sarcoma) (MTT), > 225 µM; in series [7] (Homo sapiens, A549, 72 h), 196 ± 9 µM. The LD50 at 24 h in [8] was > 6000 µmol/kg and > 2660 mg/kg. In addition, the IC50 at 24 h in [8] amounted to 225 ± 11 µM.
Take `COC(=O)c1cc2ccc3c(Br)c(C4=CCCC4)[se]c3c2oc1=O` [Compound I-2, Methyl 7-bromo-8-(cyclopent-1-en-1-yl)-2-oxo-2H-selenopheno[3,2-h]chromene-3-carboxylate]: the concentration for half-maximal inhibition (IC50) was > 235 µM in the series with MG-22A (mouse hepatoma); 281 ± 12 µM in series [1]; 142 ± 12 µM in series [2]; 110 ± 12 µM in series [3]; 197 ± 24 µM in series [4]; > 117 µM in series [5] (Homo sapiens, SH-SY5Y). Also, the IC50 in [6] came out at 155 ± 3 µM; with CCL-8 (mouse sarcoma) (MTT), 82 ± 8 µM; in series [7] (Homo sapiens, A549, 72 h), 122 ± 8 µM. Moreover, the LD50 at 24 h in series [8] was 500 µmol/kg and 194 mg/kg. For the same compound, in [8], the half-inhibitory concentration (IC50) at 24 h was > 235 µM.
For the compound `COC(=O)c1cc2ccc3c(Br)c(C4(O)CCCCC4)[se]c3c2oc1=O` [Compound I-3, Methyl 7-bromo-8-(1-hydroxycyclohexyl)-2-oxo-2H-selenopheno[3,2-h]chromene-3-carboxylate], the half-maximal inhibitory concentration (IC50) was 33 ± 6 µM in the series on MG-22A (mouse hepatoma); 29 ± 2 µM in series [1]; 64 ± 6 µM in series [2]; 27 ± 1 µM in [3]; > 117 µM in series [4]; ≤ 19 µM in series [5] (Homo sapiens, SH-SY5Y). Besides, the IC50 in series [5] was 19 ± 3 µM; in series [6], 66 ± 3 µM; in the series with CCL-8 (mouse sarcoma) (MTT), 186 ± 9 µM; in series [7] (Homo sapiens, A549, 72 h), ≤ 19 µM; in series [7] it was 19 ± 2 µM. Also, the 50% lethal dose (LD50) at 24 h in series [8] is > 5600 µmol/kg. In addition, the IC50 at 24 h in series [8] was determined as 207 ± 9 µM.
With `COC(=O)c1cc2ccc3c(Br)c(C4(OC)CCCCC4)[se]c3c2oc1=O` [Compound I-4, Methyl 7-bromo-8-(1-methoxycyclohexyl)-2-oxo-2H-selenopheno[3,2-h]chromene-3-carboxylate], the IC50 in the series with MG-22A (mouse hepatoma) was 446 ± 6 µM; in series [1], 46 ± 14 µM; in [2], 103 ± 4 µM; in [3], 52 ± 5 µM; in series [4], 103 ± 5 µM; in [5] (Homo sapiens, SH-SY5Y), > 117 µM. Also, the IC50 in series [6] was 201 ± 5 µM; in the series with CCL-8 (mouse sarcoma) (MTT) it was 95 ± 2 µM; in [7] (Homo sapiens, A549, 72 h), > 201 µM. Besides, the LD50 at 24 h in [8] is 1100 µmol/kg and 548 mg/kg. For the same compound, in series [8], the IC50 at 24 h stood at 198 ± 2 µM.
For the compound `CCCCCCCCCCOC(=O)c1cc2ccc3c(Br)c(C4(O)CCCCC4)[se]c3c2oc1=O` [Compound I-7], the IC50 in the series on MG-22A (mouse hepatoma) is > 164 µM; in series [1] it was 48 ± 13 µM; in [2], 152 ± 9 µM; in series [3], > 164 µM; in series [4] it was 151 ± 6 µM; in [5] (Homo sapiens, SH-SY5Y) it was > 117 µM. The IC50 in [6] was > 164 µM; in the series with CCL-8 (mouse sarcoma) (MTT) it was 81 ± 2 µM; in series [7] (Homo sapiens, A549, 72 h), > 164 µM. Further, the LD50 at 24 h in series [8] is > 3300 µmol/kg and > 2000 mg/kg. The IC50 at 24 h in series [8] is > 164 µM.
`COC(=O)c1cc2ccc3c(Br)c(CN4CCCCC4)[se]c3c2oc1=O` [Compound I-8, Methyl 7-bromo-2-oxo-8-(piperidin-1-ylmethyl)-2H-selenopheno[3,2-h]chromene-3-carboxylate]: the IC50 in the series on MG-22A (mouse hepatoma) is 46 ± 3 µM; in series [1] it was 165 ± 5 µM; in series [2], > 192 µM; in series [3], > 192 µM; in series [4], 181 ± 9 µM; in [5] (Homo sapiens, SH-SY5Y), > 192 µM. For the same compound, the concentration for half-maximal inhibition (IC50) in series [6] is > 117 µM; with CCL-8 (mouse sarcoma) (MTT), > 122 µM; in series [7] (Homo sapiens, A549, 72 h) it was 115 ± 8 µM. Moreover, the 50% lethal dose (LD50) at 24 h in series [8] is > 3900 µmol/kg and > 2000 mg/kg. Also, in series [8], the IC50 at 24 h came to 54 ± 3 µM.
On to `COC1(c2[se]c3c(ccc4cc(C(=O)O)c(=O)oc43)c2Br)CCCCC1` [Compound I-12, 7-Bromo-8-(1-methoxycyclohexyl)-2-oxo-2H-selenopheno[3,2-h]chromene-3-carboxylic acid], for which the concentration for half-maximal inhibition (IC50) was > 206 µM in the series on MG-22A (mouse hepatoma); 141 ± 10 µM in [1]; 127 ± 12 µM in [2]; 51 ± 2 µM in series [3]; 97 ± 7 µM in series [4]; 193 ± 2 µM in series [5] (Homo sapiens, SH-SY5Y). For the same compound, the concentration for half-maximal inhibition (IC50) in series [6] is > 206 µM; in the series with CCL-8 (mouse sarcoma), 134 ± 6 µM; in [7] (Homo sapiens, A549, 72 h) it was 61 ± 1 µM. In addition, in series [8], the LD50 at 24 h is 300 µmol/kg and 134 mg/kg. Moreover, in series [8], the IC50 at 24 h came to 213 ± 7 µM.
With `CCCCCCCCOC(=O)c1cc2ccc3c(Br)c(C4=CCCCC4)[se]c3c2oc1=O` [Compound I-16, Octyl 7-bromo-8-(cyclohex-1-en-1-yl)-2-oxo-2H-selenopheno[3,2-h]chromene-3-carboxylate], the IC50 was > 122 µM with MG-22A (mouse hepatoma); > 117 µM in series [1]; > 122 µM in [2]; > 117 µM in [3]; > 177 µM in series [4]; > 117 µM in series [5] (Homo sapiens, SH-SY5Y). The IC50 in series [6] is > 117 µM; in series [7] (Homo sapiens, A549, 72 h) it was > 117 µM. For the same compound, the 50% lethal dose (LD50) at 24 h in [8] is 876 mg/kg. In addition, the half-maximal inhibitory concentration (IC50) at 24 h in [8] is > 177 µM.
Take `CC(C)CCC[C@@H](C)[C@H]1CC[C@H]2[C@@H]3CC=C4C[C@@H](OC(=O)c5cc6ccc7c(Br)c(C8=CCCCC8)[se]c7c6oc5=O)CC[C@]4(C)[C@H]3CC[C@]12C` [Compound I-17, (3S,8S,9S,10R,13R,14S,17R)-10,13-Dimethyl-17-((R)-6-methylheptan-2-yl)-2,3,4,7,8,9,10,11,12,13,14,15,16,17-tetradecahydro-1H-cyclopenta[a]phenanthren-3-yl-7-bromo-8-(cyclohex-1-en-1-yl)-2-oxo-2H-selenopheno[3,2-h]chromene-3-carboxylate]: the IC50 was > 117 µM in series [1]; > 117 µM in series [3]; > 117 µM in series [4]; > 117 µM in series [5] (Homo sapiens, SH-SY5Y); > 117 µM in series [6]; > 117 µM in series [7] (Homo sapiens, A549, 72 h). The LD50 at 24 h in series [8] is 3000 µmol/kg and 2450 mg/kg. In [8], the concentration for half-maximal inhibition (IC50) at 24 h is > 117 µM.
